Source: EP2819510B1, “ORGAN PERFUSION SYSTEM” (Rodos BioTarget GmbH, priority 2012, dated 2013)

Legend:
CYP2C9 = CYP2C9 (Homo sapiens, UniProt P11712); assay: CYP activity in perfused liver tissue, diclofenac substrate
CYP3A4 = CYP3A4 (Homo sapiens, UniProt P08684); assay: CYP activity in perfused liver tissue, midazolam substrate
[1] = initial 30-min interval, dropped continuously thereafter
[2] = late (1-6 h), cirrhotic vs. non-cirrhotic liver

Chain of CYP3A4 (P08684 whole entry, the tested form may be a part): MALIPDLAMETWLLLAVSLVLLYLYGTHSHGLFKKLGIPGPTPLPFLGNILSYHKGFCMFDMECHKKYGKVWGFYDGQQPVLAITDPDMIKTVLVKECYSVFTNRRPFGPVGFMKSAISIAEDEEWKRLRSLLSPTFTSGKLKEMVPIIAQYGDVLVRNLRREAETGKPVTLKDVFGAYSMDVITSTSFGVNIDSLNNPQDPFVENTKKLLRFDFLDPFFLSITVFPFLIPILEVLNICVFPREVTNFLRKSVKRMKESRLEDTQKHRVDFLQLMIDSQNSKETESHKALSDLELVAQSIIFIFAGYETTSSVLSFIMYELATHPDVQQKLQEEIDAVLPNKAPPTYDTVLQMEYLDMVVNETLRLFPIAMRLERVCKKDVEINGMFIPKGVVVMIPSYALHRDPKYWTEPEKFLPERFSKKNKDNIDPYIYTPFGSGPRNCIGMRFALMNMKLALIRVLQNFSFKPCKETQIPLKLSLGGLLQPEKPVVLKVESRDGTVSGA
Chain of CYP2C9 (P11712 whole entry, the tested form may be a part): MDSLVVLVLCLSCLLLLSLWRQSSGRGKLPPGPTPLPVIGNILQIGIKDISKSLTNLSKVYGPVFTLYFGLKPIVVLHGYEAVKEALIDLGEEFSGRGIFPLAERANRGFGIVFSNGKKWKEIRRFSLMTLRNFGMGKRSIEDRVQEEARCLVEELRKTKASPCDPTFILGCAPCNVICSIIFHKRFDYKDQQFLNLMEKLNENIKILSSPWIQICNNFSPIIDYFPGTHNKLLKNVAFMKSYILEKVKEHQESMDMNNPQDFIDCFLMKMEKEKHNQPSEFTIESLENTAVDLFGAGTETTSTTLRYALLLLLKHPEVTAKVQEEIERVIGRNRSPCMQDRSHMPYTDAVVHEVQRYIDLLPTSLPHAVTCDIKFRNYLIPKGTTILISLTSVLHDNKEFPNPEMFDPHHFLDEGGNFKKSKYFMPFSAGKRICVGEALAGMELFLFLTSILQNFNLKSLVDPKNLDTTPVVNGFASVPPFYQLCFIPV

O=C(O)Cc1ccccc1Nc1c(Cl)cc(O)cc1Cl [OH-diclofenac, 4'-hydroxydiclofenac]
formation of phase-I metabolite (CYP2C9; [1]): formed quite rapidly
AUC of phase-I product, CL tissue higher than NC tissue (CYP2C9; [2]): 26.9%

OCc1ncc2n1-c1ccc(Cl)cc1C(c1ccccc1F)=NC2 [OH-midazolam, 1'-hydroxymidazolam]
formation of phase-I metabolite (CYP3A4; [1]): formed quite rapidly
AUC of phase-I product, CL tissue higher than NC tissue (CYP3A4; [2]): 53.8%
